Results published in the NIST ThermoML archive (doi:10.1016/j.tca.2015.06.017).

Experiment: xn = mol fraction of the nth substance listed
Details: Liquid, Vibrating tube method

CCCCCl [1-chlorobutane] + CCCCCCC
mass density [kg/m3]
Details	303.15 K	313.15 K
100 kPa, x2 = 0.0508	860.95	849.81
100 kPa, x2 = 0.0994	847.86	836.88
100 kPa, x2 = 0.2013	822	811.33
100 kPa, x2 = 0.3015	798.55	788.17
100 kPa, x2 = 0.4008	777.02	766.92
100 kPa, x2 = 0.5026	756.58	746.79
100 kPa, x2 = 0.6012	738.17	728.67
100 kPa, x2 = 0.7003	720.97	711.73
100 kPa, x2 = 0.7995	704.97	695.88
100 kPa, x2 = 0.9011	689.64	680.8
100 kPa, x2 = 0.9494	682.71	673.98
2000 kPa, x2 = 0.0508	863.1	852.16
2000 kPa, x2 = 0.0994	849.99	839.22
2000 kPa, x2 = 0.2013	824.16	813.71
2000 kPa, x2 = 0.3015	800.7	790.49
2000 kPa, x2 = 0.4008	779.13	769.27
2000 kPa, x2 = 0.5026	758.72	749.1
2000 kPa, x2 = 0.6012	740.28	730.92
2000 kPa, x2 = 0.7003	723.08	713.94
2000 kPa, x2 = 0.7995	707.04	698.12
2000 kPa, x2 = 0.9011	691.71	683.02
2000 kPa, x2 = 0.9494	684.78	676.19
5000 kPa, x2 = 0.0508	866.34	855.66
5000 kPa, x2 = 0.0994	853.23	842.7
5000 kPa, x2 = 0.2013	827.36	817.15
5000 kPa, x2 = 0.3015	803.89	793.89
5000 kPa, x2 = 0.4008	782.29	772.63
5000 kPa, x2 = 0.5026	761.81	752.4
5000 kPa, x2 = 0.6012	743.41	734.17
5000 kPa, x2 = 0.7003	726.22	717.17
5000 kPa, x2 = 0.7995	710.1	701.32
5000 kPa, x2 = 0.9011	694.74	686.16
5000 kPa, x2 = 0.9494	687.8	679.3
7000 kPa, x2 = 0.0508	868.42	857.83
7000 kPa, x2 = 0.0994	855.3	844.87
7000 kPa, x2 = 0.2013	829.43	819.33
7000 kPa, x2 = 0.3015	805.92	796.12
7000 kPa, x2 = 0.4008	784.34	774.82
7000 kPa, x2 = 0.5026	763.83	754.59
7000 kPa, x2 = 0.6012	745.42	736.35
7000 kPa, x2 = 0.7003	728.16	719.35
7000 kPa, x2 = 0.7995	712.06	703.48
7000 kPa, x2 = 0.9011	696.65	688.32
7000 kPa, x2 = 0.9494	689.71	681.45
10000 kPa, x2 = 0.0508	871.51	861.16
10000 kPa, x2 = 0.0994	858.41	848.2
10000 kPa, x2 = 0.2013	832.51	822.59
10000 kPa, x2 = 0.3015	808.97	799.33
10000 kPa, x2 = 0.4008	787.38	777.95
10000 kPa, x2 = 0.5026	766.86	757.71
10000 kPa, x2 = 0.6012	748.41	739.49
10000 kPa, x2 = 0.7003	731.09	722.43
10000 kPa, x2 = 0.7995	714.97	706.51
10000 kPa, x2 = 0.9011	699.57	691.27
10000 kPa, x2 = 0.9494	692.59	684.4
20000 kPa, x2 = 0.0508	881.1	871.22
20000 kPa, x2 = 0.0994	867.95	858.21
20000 kPa, x2 = 0.2013	841.94	832.53
20000 kPa, x2 = 0.3015	818.31	809.13
20000 kPa, x2 = 0.4008	796.57	787.71
20000 kPa, x2 = 0.5026	775.93	–
20000 kPa, x2 = 0.6012	757.4	–
20000 kPa, x2 = 0.7003	740.01	–
20000 kPa, x2 = 0.7995	723.78	–
20000 kPa, x2 = 0.9011	708.24	–
20000 kPa, x2 = 0.9494	701.2	–
30000 kPa, x2 = 0.0508	889.77	–
30000 kPa, x2 = 0.0994	876.56	–
30000 kPa, x2 = 0.2013	850.48	–
30000 kPa, x2 = 0.3015	826.73	–
30000 kPa, x2 = 0.4008	804.94	–
30000 kPa, x2 = 0.5026	784.21	–
30000 kPa, x2 = 0.6012	765.55	–
30000 kPa, x2 = 0.7003	748.07	–
30000 kPa, x2 = 0.7995	731.77	–
30000 kPa, x2 = 0.9011	716.14	–
30000 kPa, x2 = 0.9494	709.05	–
40000 kPa, x2 = 0.0508	897.85	–
40000 kPa, x2 = 0.0994	884.61	–
40000 kPa, x2 = 0.2013	858.37	–
40000 kPa, x2 = 0.3015	834.56	–
40000 kPa, x2 = 0.4008	812.66	–
40000 kPa, x2 = 0.5026	791.81	–
40000 kPa, x2 = 0.6012	773.04	–
40000 kPa, x2 = 0.7003	755.46	–
40000 kPa, x2 = 0.7995	739	–
40000 kPa, x2 = 0.9011	723.24	–
40000 kPa, x2 = 0.9494	716.11	–
50000 kPa, x2 = 0.0508	905.34	–
50000 kPa, x2 = 0.0994	892.06	–
50000 kPa, x2 = 0.2013	865.75	–
50000 kPa, x2 = 0.3015	841.81	–
50000 kPa, x2 = 0.4008	819.81	–
50000 kPa, x2 = 0.5026	798.87	–
50000 kPa, x2 = 0.6012	780.02	–
50000 kPa, x2 = 0.7003	762.36	–
50000 kPa, x2 = 0.7995	745.84	–
50000 kPa, x2 = 0.9011	729.99	–
50000 kPa, x2 = 0.9494	722.81	–
60000 kPa, x2 = 0.0508	912.31	–
60000 kPa, x2 = 0.0994	899.01	–
60000 kPa, x2 = 0.2013	872.64	–
60000 kPa, x2 = 0.3015	848.6	–
60000 kPa, x2 = 0.4008	826.55	–
60000 kPa, x2 = 0.5026	805.54	–
60000 kPa, x2 = 0.6012	786.57	–
60000 kPa, x2 = 0.7003	768.84	–
60000 kPa, x2 = 0.7995	752.23	–
60000 kPa, x2 = 0.9011	736.26	–
60000 kPa, x2 = 0.9494	729.04	–
65000 kPa, x2 = 0.0508	915.61	–
65000 kPa, x2 = 0.0994	902.28	–
65000 kPa, x2 = 0.2013	875.88	–
65000 kPa, x2 = 0.3015	851.83	–
65000 kPa, x2 = 0.4008	829.71	–
65000 kPa, x2 = 0.5026	808.61	–
65000 kPa, x2 = 0.6012	789.63	–
65000 kPa, x2 = 0.7003	771.84	–
65000 kPa, x2 = 0.7995	755.19	–
65000 kPa, x2 = 0.9011	739.21	–
65000 kPa, x2 = 0.9494	731.94	–
